Laboratory results: patent publication US8802691B2 (priority 2009, dated 2014)
Read-outs that look alike come from different tables or passages of the source.

What was measured:
[1] = test system: canine Leishmaniosis; settings: conventional treatments monitored by serology, bibliography, cited from earlier work
[2] = test system: canine Leishmaniosis
[3] = test system: monocytes; experiment: NBT reduction test in whole blood of healthy dogs: activated monocytes; assay type: in vivo, dog
Protocol: (§1) 20 dogs of different breed, sex and age, were randomly distributed into two groups of 10. […] During the study several visits were paid (days 0, 15, 30, 60 and 90) during which some clinical examinations were done and blood samples were collected for biochemical, haemathological and serological analyses (DAT). The percentages of activated monocytes and neutrophils were determined in whole blood samples through the nitroblue tetrazolium (NBT) reduction test.

[4] = test system: Leishmania infantum; experiment: Circulating monocyte-derived macrophages from treated healthy dogs, in vitro infection with Leishmania infantum promastigotes; assay type: cell-based
Text: It is designed as a prospective monocentric study. A total of 10 dogs have been included, each of them acting as its own control, for which reason it has not been considered necessary the use of a negative control. […] During the study several visits are paid the days 0 (basal), 15 and 30 of treatment, and days 60 and 90 (one and two months after finishing the treatment, respectively). During each visit blood is collected from animals and it is processed to isolate and culture monocytes-macrophages, which are then co-cultivated with Leishmania promastigotes. After 48 hours the nitroblue tetrazolium (NBT) reduction test is carried out on the cultures and the percentage of parasited macrophages and the number of amastigotes per macrophage were measured. Blood samples are also collected on days 0 and 90 to assess animal health by biochemical and haemathological analyses.

[5] = test system: prolactine hormone; settings: for Tmax of prolactine (time to maximum prolactine concentration), mean: male dog, serum
Protocol: During each of the 7 phases blood samples were extracted at different times (t=0 h, 0.5 h, 1 h, 2 h, 4 h, 6 h, 8 h, 10 h, 12 h, 18 h, 36 y 48 h) for determining serum concentrations of prolactine using a commercial immuno enzymatic assay kit.

[6] = test system: L. Infantum; settings: 2 mg/kg/day, dogs infected with L. Infantum, ES 2246142; cited from earlier work
[7] = test system: canine Leishmaniosis; experiment: Clinical study of Domperidone alone in dogs with initial stage Leishmaniosis (Example 6); assay type: in vivo, dog; settings: for percentage of dogs with antibody titre lower than DAY 0: oral 1 mg/kg/12 h (<30 kg) or 0.7 mg/kg/12 h for 30 days, 70 dogs
Protocol: A clinical study was performed including a group of 70 dogs with an initial stage of Leishmaniosis (antibody titre against Leishmania between 1/800 and 1/1600-threshold of positively 1/800-and oligosymptomatics).
[…] During said controls different immunological (antibody titre against Leishmania-DAT, intradermoreaction test-Leishmanina), clinical (clinical symptoms, body weight) and analytical (biochemical profile, haematology, proteinogram and urine test for the determination of UPC ratio) parameters were assessed.

[8] = test system: neutrophils; experiment: NBT reduction test in whole blood of healthy dogs: activated neutrophils; assay type: in vivo, dog
Protocol: as §1

[9] = test system: canine Leishmaniosis; experiment: Controlled study of a domperidone treatment plan in seronegative dogs in an endemic area (Example 5); assay type: in vivo, dog; settings: treated group n = 120, two 30-day treatments at 0.5 mg/kg/day oral
Text: The study lasted for 9 months, beginning at the onset of the activity period of the vector insect in the geographical area in which animals were found and closing three months after the end of this period. The presence of the vector was confirmed before starting the treatment.
The remaining 120 animals received a placebo under an equivalent dosage regime.

[10] = Day 0 (before treatment), 0.5 mg/kg/day oral for 30 days, healthy dogs n = 10
[11] = Day 15, 0.5 mg/kg/day oral for 30 days, healthy dogs n = 10
[12] = Day 30, 0.5 mg/kg/day oral for 30 days, healthy dogs n = 10
[13] = Day 90 (60 days after end of treatment), 0.5 mg/kg/day oral for 30 days
[14] = sample of Day 0 (basal), dogs given 0.5 mg/kg/day oral for 30 days
[15] = sample of Day 15, dogs given 0.5 mg/kg/day oral for 30 days
[16] = sample of Day 30, dogs given 0.5 mg/kg/day oral for 30 days
[17] = sample of Day 60 (one month after end of treatment)
[18] = sample of Day 90 (two months after end of treatment)

Oc1ncnc2[nH]ncc12 [Alopurinol]
time after onset of treatment until decrease in the antibody titre against Leishmania is observed [1]: ≥ 180 days
time after onset of treatment until decrease in the antibody titre against Leishmania is observed ([1]; listed as alopurinol): 180 days

O=c1[nH]c2ccccc2n1CCCN1CCC(n2c(=O)[nH]c3cc(Cl)ccc32)CC1 [Domperidone]
Animals WITH signs of canine Leishmaniosis, accumulated percentage ([2]; 0.5 mg/kg, 720 h): 11%
Animals WITHOUT signs of canine Leishmaniosis, accumulated percentage ([2]; 0.5 mg/kg, 720 h): 85%
Animals WITH signs of canine Leishmaniosis, accumulated percentage ([2]; treated group n = 45, 0.5 mg/kg/day for 30 days each four months, end of study (second year), highly endemic area): 11%
percentage of activated monocytes, mean [3, 10]: 3.200%
percentage of activated monocytes, mean [3, 11]: 26.10%
percentage of activated monocytes, mean [3, 12]: 26.40%
percentage of activated monocytes, mean ([3]; Day 60 (30 days after end of treatment), 0.5 mg/kg/day oral for 30 days): 8.600%
percentage of activated monocytes, mean [3, 13]: 3.100%
number of amastigotes per macrophage after 48 hours of in vitro co-culture with Leishmania infantum promastigotes, mean [4, 14]: 44.4
percentage of positive NBT macrophages after 48 hours of co-culture with Leishmania infantum promastigotes, mean [4, 14]: 2.00%
number of amastigotes per macrophage after 48 hours of in vitro co-culture with Leishmania infantum promastigotes, mean [4, 15]: 9.7
percentage of positive NBT macrophages after 48 hours of co-culture with Leishmania infantum promastigotes, mean [4, 15]: 61.10%
number of amastigotes per macrophage after 48 hours of in vitro co-culture with Leishmania infantum promastigotes, mean [4, 16]: 11.3
percentage of positive NBT macrophages after 48 hours of co-culture with Leishmania infantum promastigotes, mean [4, 16]: 62.20%
number of amastigotes per macrophage after 48 hours of in vitro co-culture with Leishmania infantum promastigotes, mean [4, 17]: 23.1
percentage of macrophages infected after 48 hours of in vitro culture with Leishmania infantum promastigotes, mean [4, 17]: 82.6%
percentage of positive NBT macrophages after 48 hours of co-culture with Leishmania infantum promastigotes, mean [4, 17]: 1.70%
number of amastigotes per macrophage after 48 hours of in vitro co-culture with Leishmania infantum promastigotes, mean [4, 18]: 42.6
percentage of macrophages infected after 48 hours of in vitro culture with Leishmania infantum promastigotes, mean [4, 18]: 89.5%
percentage of positive NBT macrophages after 48 hours of co-culture with Leishmania infantum promastigotes, mean [4, 18]: 1.80%
average concentrations of prolactine in the first 36 hours after administration versus placebo ([5]; all six dosages 0.125-4 mg/kg, single oral dose): remained above the prolactine concentration in the group treated with the placebo
Tmax of prolactine (time to maximum prolactine concentration), mean ([5]; single oral dose 0.125 mg/kg): 8.6 h
Tmax of prolactine (time to maximum prolactine concentration), mean ([5]; single oral dose 0.250 mg/kg): 7.2 h
Tmax of prolactine (time to maximum prolactine concentration), mean ([5]; single oral dose 0.5 mg/kg): 3.7 h
Tmax of prolactine (time to maximum prolactine concentration), mean ([5]; single oral dose 1 mg/kg): 2.7 h
Tmax of prolactine (time to maximum prolactine concentration), mean ([5]; single oral dose 2 mg/kg): 5.0 h
Tmax of prolactine (time to maximum prolactine concentration), mean ([5]; single oral dose 4 mg/kg): 4.6 h
effect on clinical signs of Leishmaniosis and level of antibodies [6]: able to reduce the clinical signs of Leishmaniosis and/or to reduce the level of antibodies in infected animals
percentage of dogs with antibody titre lower than DAY 0 ([7]; DAY 30): 10%
percentage of dogs with antibody titre lower than DAY 0 ([7]; DAY 90): 47%
percentage of dogs with antibody titre lower than DAY 0 ([7]; DAY 180): 57%
animals with total disappearance of clinical symptoms (mainly lymphadenopathy) ([7]; in the course of the 12 months after the onset of the treatment): 100%
percentage of activated neutrophils, mean [8, 10]: 5.700%
percentage of activated neutrophils, mean [8, 11]: 38.50%
percentage of activated neutrophils, mean [8, 12]: 40.00%
percentage of activated neutrophils, mean [8, 13]: 5.900%
animals with seropositivity against Leishmania (DAT≧1/400) at the end of the study [9]: 0%
animals showing clinical symptoms indicative of adverse reactions attributable to the medication ([9]; 9 months): None
Animals WITH signs of canine Leishmaniosis, accumulated percentage ([9]; end of study (9th month)): 0%
Animals WITHOUT signs of canine Leishmaniosis, accumulated percentage ([9]; end of study (9th month)): 100%
